{"source": "paper PMC10857906", "about": "“PROTAC-mediated NR4A1 degradation as a novel strategy for cancer immunotherapy” (The Journal of Experimental Medicine, 2024)", "key": {"B16F10 melanoma": {"system": "B16F10 melanoma", "assay": "B16F10 melanoma syngeneic tumor model", "type": "in vivo, mouse", "excerpt": "7–9-wk-old C57BL/6J, B6.129S2-Ighm^tm1Cgn/J (002288), B6.129S2-Nr4a1^tm1Jmi/J (NR4A1^−/−, 006187), and NOD-SCID interleukin-2 receptor gamma null (NSG) mice were purchased from Jackson Laboratories. For all studies involving NR-V04 and celastrol, the compounds were formulated in 50% phosal PG, 45% miglyol 810N, and 5% polysorbate 80 and administered via i.p. injection.\n(§1) For syngeneic tumor models, 5 × 10^5 cells MC38, Yumm1.7, and Yummer1.7, 1 × 10^5 cells of B16F10 were resuspended in PBS and implanted into 7–9-wk-old mice subcutaneously. For the tumor inhibition experiment, mice were treated with 1.8 mg/kg NR-V04 or 0.75 mg/kg celastrol by i.p. injection twice weekly. For the immune profile experiment, once tumors reached 0.5 cm in diameter, mice were treated with 1.8 mg/kg NR-V04 by i.p. injection twice weekly. For the toxicity experiment, male and female non-tumor-bearing mice were treated with 2 mg/kg NR-V04 for two doses in the first week and 5 mg/kg for another two doses in the second week. Blood samples were taken from the submandibular (facial) vein before each treatment and 42 days later for hematological analysis, and body weight was measured twice per week up to day 42. Mice were euthanized in accordance with the IACUC protocol once the largest tumors reached 2 cm in diameter, and tissues were collected for further analysis."}, "[1]": {"system": "immune cells in the TME, spleen and blood", "assay": "Immune profile by flow cytometry in B16F10 tumor-bearing mice", "type": "in vivo, mouse", "description": "as §1\nMouse tumors were excised and ∼200 mg of tumor tissue was enzymatically and mechanically digested using the mouse Tumor Dissociation Kit (Miltenyi Biotec) to obtain a single-cell suspension. Human tumor samples and sections were enzymatically and mechanically digested using the human Tumor Dissociation Kit (Miltenyi Biotec) to obtain single-cell suspension. Red blood cells were lysed using ACK lysis buffer and mononuclear cells were isolated by density gradient using SepMate Tubes (StemCell Technologies) and Lymphoprep density gradient media (StemCell Technologies). Mouse cells were then washed and incubated with combinations of the following antibodies: anti-mouse CD62L-BV785 (clone MEL-14), anti-mouse MHCII I-A/I-E-BB515 (Clone 2G9, 1:400; BD Biosciences), anti-mouse CD11B-PEdazzle 594 (clone M1/70, 1:200), anti-mouse CD45-AF532 (clone 30F.11), anti-mouse CD3-APC/Cy7 (clone 17A2), anti-mouse CD8-BV510 (clone 53-6.7), anti-mouse CD4-BV605 (clone GK1.5), anti-mouse NK1.1-AF700 (clone PK136), anti-mouse/human CD45R/B220-BV 570 (clone RA3-6B2), anti-mouse CD138-BV711 (clone 281-2), […], anti-mouse IgD-PE-Cy7 (clone 11-26c.2a), anti-mouse Ly6G-FITC (clone IA8), anti-mouse Ly6C-BV711 (clone HK1.4), anti-mouse CD38-PerCP/Cy 5.5 (clone 90) anti-mouse IgM-AF488 (clone RMM-1), anti-mouse CD25-PE-Cy5 (clone PC61) plus zombie red (cell viability; Thermo Fisher Scientific), and mouse FcR blocker (anti-mouse CD16/CD32, clone 2.4G2; BD Biosciences). After surface staining, cells were fixed and permeabilized using the FOXP3/Transcription Factor Staining Buffer Set (eBioscience). Cells were stained with a combination of the following antibodies: anti-mouse FOXP3-efluor 450 (clone FJK-16S, 1:50; eBioscience), anti-mouse Granzyme B-BV421 (clone GB11), and anti-mouse NR4A1-PE (clone 12.14; eBioscience). Human cells were stained with a combination of the following antibodies: anti-human CD45-BV510 (clone H130), anti-human CD3-AF700 (clone HIT5a), anti-human CD4-BV421 (clone OKT4), anti-human CD8-BV711 (clone RPA-T8), anti-human CD127-BV605 (clone A019DS), anti-human CD25-PE-Cy7 (clone MA251) plus FVD-eFluor-780 (eBioscience), and human FcR blocking reagent (StemCell Technologies). Cells were washed then fixed and permeabilized using the eBioscience FOXP3/Transcription Factor Staining Buffer Set. […] Flow cytometry was performed on a three laser Cytek Aurora Cytometer (Cytek Biosciences) and analyzed using FlowJo software (BD Biosciences). […]"}}}
{"smiles": "CC1=C(O)C(=O)C=C2C1=CC=C1[C@@]2(C)CC[C@@]2(C)[C@@H]3C[C@](C)(C(=O)NCCOCCOCCOCCOCC(=O)N[C@H](C(=O)N4C[C@H](O)C[C@H]4C(=O)N[C@@H](C)c4ccc(-c5scnc5C)cc4)C(C)(C)C)CC[C@]3(C)CC[C@]12C", "note": "[NR-V04]", "values": [{"measurement": "tumor growth", "setting": "B16F10 melanoma; B16F10 in B6.129S2-Ighm^tm1Cgn/J mice that lack mature B cells", "value": "unable to inhibit tumor growth"}, {"measurement": "tumor growth", "setting": "B16F10 melanoma; B16F10 in NR4A1^−/− mice, 1.8 mg/kg i.p.", "value": "failed to inhibit B16F10"}, {"measurement": "tumor growth", "setting": "B16F10 melanoma; B16F10 in NSG mice, 1.8 mg/kg i.p.", "value": "failed to inhibit tumor growth"}, {"measurement": "tumor growth", "setting": "B16F10 melanoma; B16F10 in WT mice, 1.8 mg/kg NR-V04 or 0.75 mg/kg celastrol i.p. twice a week from day 7", "value": "effectively inhibited tumor growth"}, {"measurement": "B cells in the spleen and blood", "setting": "[1]; B16F10 model, 2 doses of 1.8 mg/kg i.p.", "value": "no significant change"}, {"measurement": "CD8^+ Texh cells in vivo", "setting": "[1]; B16F10 tumors", "value": "did not observe a significant decrease in CD8^+ Texh cells"}, {"measurement": "TI-B cells (B220^+ cells)", "setting": "[1]; B16F10 tumors, 2 doses of 1.8 mg/kg i.p. on day 1 and day 4, collected day 7, vehicle 14.7%", "value": 30.1, "unit": "%"}, {"measurement": "effector memory CD8 T cells (CD44^+CD62L^− Tem)", "setting": "[1]; spleen and tumors, B16F10 model, 2 doses of 1.8 mg/kg i.p.", "value": "increase in effector memory CD8 T cells"}, {"measurement": "monocytic myeloid-derived suppressor cells (m-MDSC, CD11B^+Ly6C^+)", "setting": "[1]; tumors and blood, B16F10 model, 2 doses of 1.8 mg/kg i.p.", "value": "decrease in monocytic myeloid-derived suppressor cells"}]}
